Experimental data reported in ChEMBL document CHEMBL3351451, “In search of next generation antimalarials” (Bioorg Med Chem Lett, 2014).
Active and inactive are the calls of the source. No cut-off for these calls is given here.

Tests used:
Plasmodium berghei [1] = experiment: Antimalarial activity against Plasmodium berghei infected in mouse assessed as cure at 40 mg/kg measured at 60 days post-infection; assay type: functional, organism-based; parameters: dose 40 mg/kg
Plasmodium berghei [2] = experiment: Antimalarial activity against Plasmodium berghei infected in mouse assessed as cure at 80 mg/kg measured at 60 days post-infection; assay type: functional, organism-based; parameters: dose 80 mg/kg
Plasmodium berghei [3] = experiment: Antimalarial activity against Plasmodium berghei infected in mouse assessed as cure at 160 mg/kg measured at 60 days post-infection; assay type: functional, organism-based; parameters: dose 160 mg/kg
Plasmodium berghei [4] = experiment: Antimalarial activity against Plasmodium berghei infected in mouse assessed as survival time at 5 mg/kg (reference value: 6.1 days); assay type: functional
Plasmodium cynomolgi [5] = experiment: Antimalarial activity against Plasmodium cynomolgi infected in rhesus monkey assessed as curative activity at 0.1 mg/kg administered daily for 7 days; assay type: functional, organism-based; parameters: dose 0.1 mg/kg
Plasmodium cynomolgi [6] = experiment: Antimalarial activity against Plasmodium cynomolgi infected in rhesus monkey assessed as curative activity at 1 mg/kg administered daily for 7 days; assay type: functional, organism-based; parameters: dose 1 mg/kg
Plasmodium cynomolgi [7] = experiment: Antimalarial activity against Plasmodium cynomolgi infected in rhesus monkey assessed as curative activity at 0.316 mg/kg administered daily for 7 days; assay type: functional, organism-based; parameters: dose 0.316 mg/kg
Plasmodium berghei [8] = experiment: Antimalarial activity against Plasmodium berghei infected in mouse assessed as cure at 640 mg/kg measured at 60 days post-infection; assay type: functional, organism-based; parameters: dose 640 mg/kg
Plasmodium berghei [9] = experiment: Antimalarial activity against Plasmodium berghei infected in mouse assessed as cure at 320 mg/kg measured at 60 days post-infection; assay type: functional, organism-based; parameters: dose 320 mg/kg
Plasmodium berghei [10] = experiment: Antimalarial activity against Plasmodium berghei infected in mouse assessed as survival time at 20 mg/kg (reference value: 6.1 days); assay type: functional
Plasmodium berghei [11] = experiment: Antimalarial activity against Plasmodium berghei infected in mouse assessed as cure at 20 mg/kg measured at 60 days post-infection; assay type: functional, organism-based; parameters: dose 20 mg/kg
Plasmodium berghei [12] = experiment: Antimalarial activity against Plasmodium berghei infected in mouse assessed as cure at 10 mg/kg measured at 60 days post-infection; assay type: functional, organism-based; parameters: dose 10 mg/kg
Mus musculus [13] = experiment: Toxicity in mouse infected with Plasmodium berghei at 640 mg/kg; assay type: organism-based; parameters: dose 640 mg/kg; details: in vivo
Mus musculus [14] = experiment: Toxicity in mouse infected with Plasmodium berghei at 320 mg/kg; assay type: organism-based; parameters: dose 320 mg/kg; details: in vivo
Mus musculus [15] = experiment: Toxicity in mouse infected with Plasmodium berghei at 160 mg/kg; assay type: organism-based; parameters: dose 160 mg/kg; details: in vivo
Plasmodium berghei [16] = experiment: Antimalarial activity against Plasmodium berghei infected in mouse assessed as cure at 5 mg/kg measured at 60 days post-infection; assay type: functional, organism-based; parameters: dose 5 mg/kg

SMILES	Activity (Plasmodium berghei [1])	Activity (Plasmodium berghei [2])	Activity (Plasmodium berghei [3])	MST (Plasmodium berghei [4])	Activity (Plasmodium cynomolgi [5])	Activity (Plasmodium cynomolgi [6])	Activity (Plasmodium cynomolgi [7])	Activity (Plasmodium berghei [8])	Activity (Plasmodium berghei [9])	Activity (Plasmodium berghei [12])	also measured
COc1cc(NC(C)CCCN)c2nccc(C)c2c1OCCCCCc1ccco1.O=C(O)/C=C/C(=O)O (configuration not stated)	Active	Active	Active	7.7 days	–	–	–	–	–	–	–
COc1cc(NC(C)CCCN)c2nccc(C)c2c1OCCCCCCc1ccccc1.O=C(O)/C=C/C(=O)O (configuration not stated)	–	–	–	5.9 days	inactive	Active	Active	–	–	–	–
COc1cc(NC(C)CCCN)c2nccc(C)c2c1OCCCCCCCCCc1ccccc1.O=C(O)/C=C/C(=O)O (configuration not stated)	–	–	Active	–	–	–	–	Active	Active	–	MST (Plasmodium berghei [10]): 8.5 days
COc1cc(NC(C)CCCN)c2nccc(C)c2c1OCCCCCc1ccccc1.O=C(O)/C=C/C(=O)O (configuration not stated)	Active	Active	Active	7.9 days	–	Active	Active	–	–	–	–
COc1cc(NC(C)CCCN)c2nccc(C)c2c1OCCCCc1ccccc1.O=C(O)/C=C/C(=O)O (configuration not stated)	–	Active	–	7.6 days	inactive	Active	–	–	–	–	–
COc1cc(NC(C)CCCN)c2nccc(C)c2c1OCCCCCCCc1ccccc1 (configuration not stated)	Active	Active	Active	–	inactive	Active	inactive	Active	Active	Active	Activity (Plasmodium berghei [11]): Active
COc1cc(NC(C)CCCN)c2nccc(C)c2c1OCCCCCCCCc1ccccc1.O=C(O)/C=C/C(=O)O (configuration not stated)	Active	Active	Active	5.7 days	–	–	–	Active	Active	–	–
COc1cc(NC(C)CCCN)c2nccc(C)c2c1OCCCCCc1cccs1.O=C(O)/C=C/C(=O)O (configuration not stated)	Active	Active	–	6.6 days	–	–	–	–	–	–	Activity (Plasmodium berghei [11]): Active
COc1cc(NC(C)CCCN)c2nccc(C)c2c1OCCCc1ccccc1.O=C(O)/C=C/C(=O)O (configuration not stated)	–	–	–	–	–	Active	–	–	–	Active	Activity (Mus musculus [13]): Toxic; Activity (Mus musculus [14]): Toxic; Activity (Mus musculus [15]): Toxic
CCCCCOc1c(OC)cc(NC(C)CCCN)c2nccc(C)c12 (configuration not stated)	–	–	–	–	–	Active	–	–	–	Active	Activity (Mus musculus [13]): Toxic; Activity (Mus musculus [14]): Toxic; Activity (Plasmodium berghei [16]): Active
